From patent EP0369733A2, “Fluorescent indicator dyes for alkali metal cations, their preparation and use” (THE REGENTS OF THE UNIVERSITY OF CALIFORNIA, priority 1988, dated 1990)

Columns and labels:
[1] = Cation titration followed by absorbance or fluorescence excitation spectra: Na⁺ binding
Method: (§1) • Footnote a: For molecular structures, see Fig. 1. • Footnote b: Except where otherwise noted, these dissociation constants were measured with the chelator dissolved in 0.1 M tetramethylammonium chloride, at a pH held high enough with 1-5 mM tris(hydroxymethyl)aminomethane for protonation to be insignificant. The absorbance spectrum, or the fluorescence excitation spectrum for those compounds (2GG, 2NN, 2OO, 2PP, 3NN) with acronyms was measured as a function of the concentration of cation added as a solid or concentrated aqueous solution of the halide salt. No correction has been made for the changing ionic strength of the solution, which started from 0.1 M and increased, but the absorbances and fluorescence amplitudes were applied for dilution of the dye and any slight quenching due to high concentrations of Cl⁻. • Footnote c: These protonation constants were determined in 0.1 M tetramethylammonium chloride, 10 mM tris(hydroxymethyl)aminomethane, titrated with 5 M H₃PO₄ to successively lower pH values measured with a Radiometer PHM84 meter. […] The first number is the wavelength in nanometers, followed in parentheses by 10⁻³ x the corresponding extinction coefficient, M⁻¹cm⁻¹. […] Emission maxima are not corrected for the spectral sensitivity of the emission detection. Quantum efficiencies were measured (13) by comparing the integral of the corrected emission spectrum with the corresponding integral for a solution of quinine bisulfate in 1 N H₂SO₄ of matched absorbance at the excitation wavelength.
(§2) Affinities for other cations were usually measured by titrating aqueous solutions of the indicator with metal chlorides added either as solid or from concentrated stock solutions, taking care to minimize dilution and correct for it. A convenient way to mass-produce premeasured micromole to millimole aliquots of solid NaCl or KCl was to pipet saline solutions into polypropylene micro test tubes and evaporate the water in an oven. The standard ionic background was again 100 mM tetramethylammonium chloride, usually with a few mM of tris(hydroxymethyl)-aminomethane base to hold the pH high enough (pH 8-9) to insure that protonation was negligible. This convenient titration procedure had the slight disadvantage that the ionic strength was not constant, especially when large quantities of a salt had to be added due to weak affinities. […] When constant ionic strength was desired, the chelator was made up at identical concentrations in matched solutions of NaCl, KCl, or tetramethylammonium chloride, then these stocks were mixed in the desired proportions. All measurements were made at room temperature (22°, ±2° C).

[2] = Cation titration followed by absorbance or fluorescence excitation spectra: Mg²⁺ binding; conditions: 0.1 M tetramethylammonium chloride, 1-5 mM tris(hydroxymethyl)aminomethane, high pH; read-out: Dissociation constants (Kd) in mM for Mg²⁺
Method: as §1
as §2, with “proportions.” for “proportions. All measurements were made at room temperature (22°, ±2° C).”

[3] = Cation titration followed by absorbance or fluorescence excitation spectra: Ca²⁺ binding; conditions: 0.1 M tetramethylammonium chloride, 1-5 mM tris(hydroxymethyl)aminomethane, high pH; read-out: Dissociation constants (Kd) in mM for Ca²⁺
Method: as §1, §2

[4] = UV absorbance spectra without and with saturating cation; type: physicochemical; conditions: for Absorbance maxima -Na⁺ (wavelength): 100 mM tetramethylammonium chloride plus 1-5 mM Tris; for Absorbance maxima -Na⁺ (wavelength) / Absorbance maxima -Na⁺ (extinction coefficient): no Na⁺; for Absorbance maxima +Na⁺ (wavelength): enough NaCl added (0.2-1 M) to saturate the Na⁺ binding; for Absorbance maxima -Na⁺ (extinction coefficient) / Absorbance maxima +Na⁺ (extinction coefficient) / Absorbance maxima +Na⁺, footnote l (extinction coefficient): number is 10⁻³ x the extinction coefficient; for Absorbance maxima -Na⁺ (extinction coefficient): lower limits for most compounds; for Absorbance maxima +Na⁺ (extinction coefficient): lower limits, saturating NaCl (0.2-1 M); for Absorbance maxima +Na⁺, footnote l (extinction coefficient) / Absorbance maxima +Na⁺, footnote l (wavelength): saturating K⁺ rather than Na⁺
Method: as §1
(§3) UV absorbance spectra were recorded initially on a Cary 210 and later on a Perkin-Elmer Lambda Array 3840 spectrophotometer. Fluorescence excitation and emission spectra and quantum efficiencies were measured on a Spex Fluorolog 111 as described previously (13).

[5] = Fluorescence excitation/emission spectra and quantum efficiency; type: physicochemical; conditions: for Emission maxima -Na⁺: 100 mM tetramethylammonium chloride; for Emission maxima -Na⁺ / Quantum efficiency -Na⁺: no Na⁺; for Emission maxima -Na⁺ / Emission maxima +Na⁺: not corrected for detector sensitivity; for Quantum efficiency -Na⁺ / Quantum efficiency +Na⁺: relative to quinine bisulfate in 1 N H₂SO₄ (0.55); for Emission maxima +Na⁺: saturating NaCl; for Quantum efficiency +Na⁺: saturating Na⁺; for Emission maxima +Na⁺, footnote l / Quantum efficiency +Na⁺, footnote l: saturating K⁺ rather than Na⁺
Method: as §1, §3

physchem [6] = conditions: 0.1 m tetramethylammonium chloride
Method: (§4) • Footnote a: For molecular structures, see Fig. 1. • Footnote b: Except where otherwise noted, these dissociation constants were measured with the chelator dissolved in 0.1 M tetramethylammonium chloride, at a pH held high enough with 1-5 mM tris(hydroxymethyl)aminomethane for protonation to be insignificant. […] No correction has been made for the changing ionic strength of the solution, which started from 0.1 M and increased, but the absorbances and fluorescence amplitudes were applied for dilution of the dye and any slight quenching due to high concentrations of Cl⁻. • Footnote c: These protonation constants were determined in 0.1 M tetramethylammonium chloride, 10 mM tris(hydroxymethyl)aminomethane, titrated with 5 M H₃PO₄ to successively lower pH values measured with a Radiometer PHM84 meter.
(§5) Proton dissociation constants of the chelators were measured by spectrophotometry or spectrofluorometry of buffered solutions, containing either 100 mM tetramethylammonium chloride as inert supporting electrolyte, or 121.5 mM K⁺, 13.5 mM Na⁺, and 1 mM Mg²⁺ to simulate the cation environment of vertebrate cytoplasm (14). Traces of UV-absorbing impurities in the tetramethylammonium chloride (Alfa Inorganics) were removed by filtration through acid-­washed activated charcoal. The concentration of the tetramethylammonium chloride was then measured by chloride titration, and the absence of significant Na⁺ contamination was verified with a sodium-selective glass electrode (Microelectrodes Inc.). When the chelators contained two protonatable nitrogens, the curve of absorbance or fluorescence versus pH was analyzed by computerized least-squares fitting to the equations for two arbitrary proton equilibria (15), with the added assumption that the two protonations each caused the same change in extinction coefficient or fluorescence.

physchem [7] = assay: physchem
Method: The lowest curve ([Na⁺] = 0) was obtained with 5 µM SBFI in 130 mM KCl, 10 mM MOPS, KOH to pH 7.05, approximately 135 mM total K⁺. The highest curve ([Na⁺] = 135 mM) was analogously recorded from 5 µM SBFI in 130 mM NaCl, 10 mM MOPS, NaOH to pH 7.05. The intermediate curves from 1.35 to 94.5 mM Na⁺ were obtained by successively 1/100, 1/99, 3/98, 1/19, 1/9, 1/4, and 1/2 of the K⁺-rich SBFI solution by the SBFI in Na medium. The excitation bandwidth was 1.85 nm; emission was collected at 500 nm with 9.3 nm bandwidth. […] The lowest curve was obtained in 130 mM NaCl, 10 mM MOPS, NaOH to pH 7.05. The highest curve was in 130 mM KCl, 10 mM MOPS, KOH to pH 7.05. The intermediate curves with 13.5 to 112.5 mM K⁺ were obtained by iteratively replacing 1/10, 1/9, 1/6, 1/4, 1/3, and 1/2 of the low K⁺ medium by the 135 mM KCl solution of PBFP.
Proton dissociation constants of the chelators were measured by spectrophotometry or spectrofluorometry of buffered solutions, containing either 100 mM tetramethylammonium chloride as inert supporting electrolyte, or 121.5 mM K⁺, 13.5 mM Na⁺, and 1 mM Mg²⁺ to simulate the cation environment of vertebrate cytoplasm (14). […] When the chelators contained two protonatable nitrogens, the curve of absorbance or fluorescence versus pH was analyzed by computerized least-squares fitting to the equations for two arbitrary proton equilibria (15), with the added assumption that the two protonations each caused the same change in extinction coefficient or fluorescence. This assumption was based on the presence of two identical chromophores in each chelator and produced good fits to the experimental data.

[8] = Proton dissociation constants in 0.1 M tetramethylammonium chloride; conditions: second value (second protonation), 10 mM Tris titrated with 5 M H₃PO₄
Method: as §4, §5

[9] = Cation titration followed by absorbance or fluorescence excitation spectra: K⁺ binding; conditions: 0.1 M tetramethylammonium chloride, 1-5 mM tris(hydroxymethyl)aminomethane, high pH; read-out: Dissociation constants (Kd) in mM for K⁺
Method: as §1
Affinities for other cations were usually measured by titrating aqueous solutions of the indicator with metal chlorides added either as solid or from concentrated stock solutions, taking care to minimize dilution and correct for it. […] This convenient titration procedure had the slight disadvantage that the ionic strength was not constant, especially when large quantities of a salt had to be added due to weak affinities. […]

[10] = quinine bisulfate in 1 N H₂SO₄; assumed value; cited from earlier work
[11] = Solubility in water for spectrophotometry; type: physicochemical
[12] = 0.1 M tetramethylammonium chloride, 1-5 mM tris(hydroxymethyl)aminomethane, pH high enough for protonation to be insignificant, 22°, read-out: Dissociation constants (Kd) in mM for Na⁺

| Molecule | Kd [1, 12] [mM] | Kd [2] [mM] | Kd [3] [mM] | Absorbance maxima -Na⁺ (wavelength) [4] [nanometers] | Absorbance maxima +Na⁺ (wavelength) [4] [nanometers] | Absorbance maxima -Na⁺ (extinction coefficient) [4] [M⁻¹ cm⁻¹] | Absorbance maxima +Na⁺ (extinction coefficient) [4] [M⁻¹ cm⁻¹] | Emission maxima -Na⁺ [5] [nanometers] | Quantum efficiency -Na⁺ [5] | Emission maxima +Na⁺ [5] [nanometers] | pKa (physchem [6]) | pKa (physchem [7]; 126 mm kcl, 14 mm nacl) | pKa [8] | Kd [9] [mM] | Absorbance maxima +Na⁺, footnote l (extinction coefficient) [4] [M⁻¹ cm⁻¹] | Absorbance maxima +Na⁺, footnote l (wavelength) [4] [nanometers] | Emission maxima +Na⁺, footnote l [5] | Quantum efficiency +Na⁺, footnote l [5] | other results |
| --- | --- | --- | --- | --- | --- | --- | --- | --- | --- | --- | --- | --- | --- | --- | --- | --- | --- | --- | --- |
| COc1cc2cc(-c3ccc(C(=O)O)c(C(=O)O)c3)oc2cc1N1CCOCCOCCN(c2cc3oc(-c4ccc(C(=O)O)c(C(=O)O)c4)cc3cc2OC)CCOCCOCC1 [Compound 3NN, N,N-bis(2-(3,4-dicarboxyphenyl)-5-methoxybenzofuran-6-yl)-diaza[18]-crown-5] | – | – | – | 344 | – | 23000 | – | 518 | .0075 | – | – | 6.68 | – | 83 | 25000 | 337 | 494^l nanometers | .12^l | – |
| C=C[C@H]1C[N@@]2CC[C@H]1C[C@H]2[C@H](O)c1ccnc2ccc(OC)cc12 [Quinine, quinine bisulfate] | – | – | – | – | – | – | – | – | – | – | – | – | – | – | – | – | – | – | quantum efficiency of reference standard [10]: 0.55 |
| N,N-bis-(1-acetamidoacridin-4-yl)-diaza[15]-crown-5 [Compound 2HH] | – | – | – | – | – | – | – | – | – | – | – | – | – | – | – | – | – | – | solubility in water [11]: insufficiently soluble in water for spectrophotometry |

The next lines start with results.

| Kd [1, 12] [mM] | Kd [2] [mM] | Kd [3] [mM] | Absorbance maxima -Na⁺ (wavelength) [4] [nanometers] | Absorbance maxima +Na⁺ (wavelength) [4] [nanometers] | Absorbance maxima -Na⁺ (extinction coefficient) [4] [M⁻¹ cm⁻¹] | Absorbance maxima +Na⁺ (extinction coefficient) [4] [M⁻¹ cm⁻¹] | Emission maxima -Na⁺ [5] [nanometers] | Quantum efficiency -Na⁺ [5] | Emission maxima +Na⁺ [5] [nanometers] | pKa (physchem [6]) | pKa (physchem [7]; 126 mm kcl, 14 mm nacl) | pKa [8] | Kd [9] [mM] | Absorbance maxima +Na⁺, footnote l (extinction coefficient) [4] [M⁻¹ cm⁻¹] | Absorbance maxima +Na⁺, footnote l (wavelength) [4] [nanometers] | Emission maxima +Na⁺, footnote l [5] | Quantum efficiency +Na⁺, footnote l [5] | Molecule | other results |
| --- | --- | --- | --- | --- | --- | --- | --- | --- | --- | --- | --- | --- | --- | --- | --- | --- | --- | --- | --- |
| 8.5 | 18 | 40 | 342 | 334 | 45500 | 51600 | 528 | .036 | 505 | 6.3 | 6.4 | 5.5 | – | – | – | – | – | COc1cc2cc(-c3ccc(C(=O)O)c(C(=O)O)c3)oc2cc1N1CCOCCOCCN(c2cc3oc(-c4ccc(C(=O)O)c(C(=O)O)c4)cc3cc2OC)CCOCC1 [Compound 2NN, N,N-bis-(2-(3,4-dicarboxyphenyl)-5-methoxybenzofuran-6-yl)-diaza[15]-crown-5] | Kd ([1]; summary statement, conditions not specified, read-out: dissociation constant (Na⁺), range achieved): 5 to 20 mM; Quantum efficiency +Na⁺ [5]: .091 |
| 50 | 63 | – | 355 | 343 | 25000 | 27000 | 515 | – | 500 | 5.34 | 4.82 | 4.15 | – | – | – | – | – | COc1cc2cc(-c3ncc(C(=O)O)o3)oc2cc1N1CCOCCOCCN(c2cc3oc(-c4ncc(C(=O)O)o4)cc3cc2OC)CCOCC1 [Compound 2OO, N,N-bis-(2-(5-carboxyoxazol-2-yl)-5-methoxybenzofuran-6-yl)-diaza[15]-crown-5] | Na⁺ affinity ([1]; association constant, inert background cation (tetramethylammonium)): 20 M⁻¹; Kd ([1]; footnote h: 3.0 M ionic strength (3.0 M NaCl mixed with 3.0 M tetramethylammonium chloride), read-out: Dissociation constants (Kd) in mM for Na⁺): 22 mM; Quantum efficiency -Na⁺ ([5]; listed as 2OO (SBFO)): .14; Quantum efficiency -Na⁺ ([5]; listed as SBFO): 0.14; Quantum efficiency +Na⁺ ([5]; listed as 2OO (SBFO)): .44; Quantum efficiency +Na⁺ ([5]; listed as SBFO): 0.44 |
| 21 | 40 | 16 | 350 | – | 42000 | – | 545 | .024 | – | – | – | – | 8 | 42000 | 344 | 504^l nanometers | .072^l | COc1cc2cc(-c3ccc(C(=O)O)cc3C(=O)O)oc2cc1N1CCOCCOCCN(c2cc3oc(-c4ccc(C(=O)O)cc4C(=O)O)cc3cc2OC)CCOCCOCC1 [Compound 3PP] | pKa (physchem [7]): 5.78 |
